Here are results for 10 molecules from US5455240A, “Modulators of pneumococcal adhesion to cellular targets involving the platelet activating factor receptor, and uses thereof” (The Rockefeller University, priority 1994, dated 1995).

For data set [1], the system named is human vein endothelial cells (EC). Briefly: Pneumococcal adherence to human vein endothelial cell monolayers, resting or TNFα-stimulated. The format is cell-based. The following applies: for Number of pneumococci adherent to designated receptor on host cell: 2 mM sugar, adherence per 100 host cells without sugar minus with sugar; for pneumococcal adherence to resting EC in presence of antagonist: 1 μM antagonist, without antagonist 240 ±15. As for the experimental part:
(§1) FIG. 1. Adherence of pneumococci to cytokine-stimulated human cultured type II pneumocytes (A) and vascular endothelial cells (B). Monolayers in 60 well Terasaki dishes were stimulated with IL-1α (type II lung cells; 5 ng/ml, 4 h at 37° C.; Rozdzinski et al., 1993, J. Exp. Med. 178: 917) and TNFα (vascular endothelial cells; 10 ng/ml, 3 h at 37° C.; Elias et al., 1990, Am. J. Respir. Cell. Mol. Biol. 3: 13). Pneumococci R6 and AII were cultured for 18 h on trypticase soy agar containing 3% sheep blood, labelled with fluorescein isothiocyanate and adjusted to 10^5 -10^7 cfu/ml (Geelen et al., 1993, Infect. Immun. 61: 1538), and co-incubated with the monolayers. Control adherence in the absence of cytokine is indicated by a hatched line (-----). Bacteria adherent to cytokine-stimulated (.cndot.) and resting (.smallcircle.) monolayers were determined as the number of attached bacteria per 100 lung or endothelial cells. Results are the means ±SD for duplicate wells in at least six independent experiments.
(§2) FIG. 2. Effect of PAF receptor antagonists on pn[…] to IL-1α-stimulated cultured human type II lung cells (A) and TNFα-stimulated vascular endothelial cells (B). Cytokine stimulated monolayers were incubated (10 min, 37° C.) with either albumin buffer (--) or increasing concentrations of the PAF receptor antagonists L659,989 ( ) and WEB 2086 ( ) and R6 pneumococci (10^7 cfu/ml) allowed to adhere to the monolayers for 30 min at 37° C. Control adherence in the absence of cytokine stimulation is indicated by a horizontal dotted line (------). Adherent bacteria were determined as the number of attached bacteria per 100 lung or endothelial cells. Results are the means ±SD for duplicate wells in at least six independent experiments. *p<0.05 compared with cytokine-stimulation in the absence of antagonists.
(§3) The adherence of S. pneumoniae encapsulated strain AII (serotype 2) and the isogeneic unencapsulated strain R6 to human vein endothelial cells (EC) and type II lung epithelial cells (LC) was quantitated before and after stimulation of the eukaryotic cells with IL-1 or TNF. Adherence to EC was increased […] by TNFα stimulation (FIG. 1). […] (increase from 240 ±10 to 363 ±13 bacteria/100 EC; increase from 270 ±15 to 355 ±18 bacteria/100 LC). Adherence was not affected by the presence of a type II capsule. At an input concentration of 10^7 cfu/ml, adherence of AII and R6 to 100 TNFα-stimulated EC was 405 ±14 and 400 ±10, respectively.
(§4) The contribution of carbohydrate recognition to pn[…] to cytokine-stimulated EC and LC was tested using competition assays performed in the presence of monosaccharides (1-50 mM) or glycoconjugates (0.003-2 mM) the role of carbohydrate recognition in pn[…] is disclosed more fully in copending application Ser. No. 08/254,577, Attorney Docket No. 600-1-084, filed Jun. 6, 1994 by Tuomanen and Cundell, entitled "MODULATORS OF PN[…] TO PULMONARY AND VASCULAR CELLS AND DIAGNOSTIC AND THERAPEUTIC APPLICATIONS"; hereinafter Tuomanen and Cundell. Bacteria were pre-incubated for 15 min at room temperature with final concentrations of the sugars as stated, centrifuged (3,000 rpm, 3 min) to remove unbound sugar, resuspended to 1×10^7 cfu/ml in albumin buffer and added to the adherence assay. […] Adherence of bacteria lacking choline to activated cells in the presence and absence of GlcNAc was 121 ±11 and 119 ±5/100 EC and 137 ±7 and 135 ±13/100 LC, respectively.

Data set [2] concerns type II lung epithelial cells (LC). Briefly: Pneumococcal adherence to human type II lung epithelial cell monolayers, resting or IL-1α-stimulated. In kind it is cell-based. The conditions noted are these: for Number of pneumococci adherent to designated receptor on host cell: 2 mM sugar, adherence per 100 host cells without sugar minus with sugar; for pneumococcal adherence to resting LC in presence of antagonist: 1 μM antagonist, without antagonist 270 ±10. The protocol: as §1, §2, §3, §4

Data set [3] addresses T1, PAF receptor (Homo sapiens, UniProt P25105). Briefly: Pneumococcal adherence to U937 and COS-7 cells transfected with PAF receptor. The format is cell-based. Further details: pneumococcal adherence. The conditions noted are these: for adherence of R6 to U937 cells in presence of glycoconjugate: PAF receptor-transfected U937, input 10^7 cfu/ml, 296 ±30 without glycoconjugates; for pneumococcal adherence to PAF receptor-transfected cells: transfected COS-7 and U937 cells, antagonists 1 μM (FIG. 3). As for the experimental part: FIG. 3. Effect on pneumococcal adherence to PAF receptors of receptor deglycosylation, the antagonists WEB 2086 and L659,989 (1 μM) and removal of phosphorylcholine from the pneumococcal cell wall (Tuomanen et al., 1985, J. Infect. Dis. 151: 859).
Recently, the PAF receptor was cloned from human leukocytes and successfully transfected into kidney epithelial cells (Kunz et al, supra). To determine if pneumococci could directly adhere to PAF receptors, human U937 cells (ATCC CRL1593; embryonic kidney epithelial cells stably transfected with the SV40 large T-antigen) and COS-7 cells (ATCC CRL 1651; monkey kidney) were transfected with the human PAF receptor cDNA (Gerard and Gerard, 1994, J. Immunol 152: 793) or the cDNA containing a Flag construct (Kunz et al., supra) by electroporation (Kunz et al., supra) or the addition of cationic liposomes (Gerard and Gerard, supra). […] Controls cells were transfected with vector alone. Monolayers of transfected and control cells were prepared in 60-well Terasaki dishes. Monolayers of COS-7 and U937 cells are prepared in 48-well culture dishes using the methods previously described for EC and LC (Geelen et al., 1993, Infect. Immun. 61: 1538).

In data set [4] the test system is type II lung cells and vascular endothelial cells. Briefly: Pneumococcal adherence to EC and LC, results stated for both cell types together. In kind it is cell-based, human. The conditions noted are these: for inhibition of adherence to resting cells by single sugars: resting EC and LC; for IC50: Homo sapiens, Endothelial cell, 0.5 h, activated cells (IL-1α-stimulated LC, TNFα-stimulated EC), R6 10^7 cfu/ml, 30 min, 37° C., read-out: ED50 of inhibition of pneumococcal adherence. The protocol:
as §2
FIG. 4. Effect of simple sugars on adherence of R6 to resting and cytokine-stimulated human cultured type II pneumocytes (A) and vascular endothelial cells (B). R6 (10^7 cfu/ml) was exposed to various simple sugars (15 min, room temperature) and then co-incubated with either resting (.quadrature.) or cytokine-stimulated ( ) monolayers for 30 min. Pn[…] to a designated sugar was defined as bacterial adherence to 100 host cells in the absence of sugar-bacterial adherence to 100 host cells in the presence of sugar. Results are the means ±SD for duplicate wells in at least six independent experiments. Glc=D-glucose, Gal=D-galactose, Fuc=L-fucose, GalNAc=N-acetyl-D-galactosamine, GlcNAc=N-acetyl-D-glucosamine, Man=D-mannose, NANA=sialic acid, Lac=lactose and 2-ADGG=2-acetamido-2-deoxy-3-O-B-D-galactopyranosyl-D-galactopyranose.
as §4

Data set [5] deals with T1, PAF receptor. Nature of the data set: Activation of PAF receptor-transfected COS-7 cells, 3H incorporation in inositoltriphosphate (IP3). In kind it is cell-based. More on the design: IP3 (3H-inositol) response. The protocol:
FIG. 6. Pneumococci activate the PAF receptor. COS cells in a monolayer were treated with control, platelet activating factor ([…]), pneumococci (10^8 bacteria/ml), ethanolamine-cultured pneumococci (10^8 bacteria/ml), PAF+L659,989, and pneumococci+L659,989. Activation was measured by detecting the level of incorporation of ^3 H in inositoltriphosphate, which is reported as the percentage above background .
Activation of COS-7 cells transfected with the PAF receptor was assayed. The cells were exposed to medium (control), platelet activating factor ([…]), pneumococci (10^8 bacteria/ml), and ethanolamine cultured pneumococci (10^8 bacteria/ml). Inhibition of activation by PAF and pneumococci with the PAF receptor antagonist L659,989 (2 μg/ml) was also measured. Cellular activation was measured by detecting incorporation of ^3 H in inositoltriphosphate (IP3).

Data set [6] deals with T1, PAF receptor. More on the design: IP3 (3H-inositol) response. The following applies: Hwang and Lam, 1991; cited from earlier work.
Setting [7] is: monosaccharides 1-50 mM (FIG. 4).

T1 sequence (P25105 whole entry): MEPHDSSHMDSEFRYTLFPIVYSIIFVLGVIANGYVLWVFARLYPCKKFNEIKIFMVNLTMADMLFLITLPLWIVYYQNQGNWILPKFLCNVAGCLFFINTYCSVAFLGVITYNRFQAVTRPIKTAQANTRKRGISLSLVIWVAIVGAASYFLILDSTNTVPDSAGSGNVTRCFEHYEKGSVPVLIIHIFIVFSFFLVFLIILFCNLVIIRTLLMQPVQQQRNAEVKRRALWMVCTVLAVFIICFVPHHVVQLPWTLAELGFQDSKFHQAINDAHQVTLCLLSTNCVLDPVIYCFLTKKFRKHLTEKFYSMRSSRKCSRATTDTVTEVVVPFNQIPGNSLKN

On to globoside, for which the “Number of pneumococci adherent to designated receptor on host cell” value is on record as 200 ± 9 in data set [1] (EC + TNFα, control 415 ± 25); 110 ± 8 in data set [1] (resting EC, control 240 ± 10); 200 ± 11 in data set [2] (LC + IL-1α, control 355 ± 18); 140 ± 10 in data set [2] (resting LC, control 270 ± 15). Further, in data set [3], the “adherence of R6 to U937 cells in presence of glycoconjugate” value is recorded as 318 ±30.

Regarding `O=C[C@@H](O)[C@@H](O)[C@H](O)[C@H](O)CO` [D-mannose], the “inhibition of adherence to resting cells by single sugars” value in data set [4] (setting [7]) is listed as “effective in inhibiting adherence to resting cells”.

Consider `CC(=O)N[C@H]1C(O)O[C@H](CO)[C@H](O)[C@@H]1O` (stereo partly drawn) [GalNAc, N-acetyl-D-galactosamine], for which, in data set [4] (setting [7]), the “inhibition of adherence to resting cells by single sugars” value is on record as “effective in inhibiting adherence to resting cells”.

As to `CCCOc1c(OC)cc([C@@H]2CC[C@@H](c3cc(OC)c(OC)c(OC)c3)O2)cc1S(C)(=O)=O` (relative stereo) [L659,989], the “pneumococcal adherence to resting EC in presence of antagonist” value in data set [1] (resting EC) stood at 237 ±9 bacteria/EC. Further, the “pneumococcal adherence to resting LC in presence of antagonist” value in data set [2] (resting LC) is 272 ±8 bacteria. The IC50 in data set [4] came out at 50 nM. In addition, in data set [3], the “pneumococcal adherence to PAF receptor-transfected cells” value is on record as “inhibit pneumococcal adherence”. In addition, the “inhibition of PAF-mediated activation” value in data set [5] (L659,989 2 μg/ml, PAF 100 mM) is recorded as “almost completely inhibited”. For the same molecule, the “inhibition of pneumococcal-mediated activation” value in data set [5] (L659,989 2 μg/ml, pneumococci 10^8 bacteria/ml) was “almost completely inhibited”. Moreover, the oral activity result in data set [6] was “orally active”.

In the case of `CC(=O)N[C@H]1C(O)O[C@H](CO)[C@@H](O)[C@@H]1O` (stereo partly drawn) [GlcNAc, N-acetyl-D-glucosamine], the “adherence of bacteria lacking choline to activated EC in presence of sugar” value in data set [1] (ethanolamine-grown pneumococci, activated EC) is 121 ±11 /100 EC. In addition, the “adherence of bacteria lacking choline to activated LC in presence of sugar” value in data set [2] (ethanolamine-grown pneumococci, activated LC, 135 ±13 without sugar) is on record as 137 ±7 /100 LC. The “inhibition of adherence to activated cells by single sugars” value in data set [4] (cytokine-stimulated EC and LC, monosaccharides 1-50 mM (FIG. 4)) is “became effective in activated cells”. The “decrease of pneumococcal adherence to transfected cells” value in data set [3] (transfected COS-7 and U937 cells (FIG. 3)) was “about 40%”.

Take TNFα: the “increase of pneumococcal adherence to EC by cytokine stimulation” value in data set [1] (TNFα 10 ng/ml, 3 h (FIG. 1)) was ~ 70%.

Turning to `CCCCCCCCCCCCCCCCOCC(COP(=O)([O-])OCC[N+](C)(C)C)OC(C)=O` (centres unmarked) [PAF, platelet activating factor], in data set [3], the “pneumococcal adherence to PAF receptor-transfected cells” value is given as “inhibit pneumococcal adherence”. The “3H incorporation in IP3 (receptor activation)” value in data set [5] (PAF 100 mM, transfected COS-7 cells (FIG. 6)) is listed as “significant ^3 H incorporation in IP3”.

As to `Cc1nnc2n1-c1sc(CCC(=O)N3CCOCC3)cc1C(c1ccccc1Cl)=NC2` [WEB 2086], the “pneumococcal adherence to resting EC in presence of antagonist” value in data set [1] (resting EC) is 224 ±12 bacteria/EC. For the same molecule, the “pneumococcal adherence to resting LC in presence of antagonist” value in data set [2] (resting LC) is reported as 264 ±8 bacteria. In addition, in data set [4], the IC50 was determined as 10 nM. In addition, in data set [3], the “pneumococcal adherence to PAF receptor-transfected cells” value is listed as “inhibit pneumococcal adherence”.

With asialo-GM2, the “Number of pneumococci adherent to designated receptor on host cell” value is reported as 180 ± 13 in data set [1] (EC + TNFα, control 415 ± 25); 140 ± 12 in data set [1] (resting EC, control 240 ± 10); 205 ± 9 in data set [2] (LC + IL-1α, control 355 ± 18); 140 ± 10 in data set [2] (resting LC, control 270 ± 15). Also, in data set [3], the “adherence of R6 to U937 cells in presence of glycoconjugate” value is given as 327 ±39.

B1: IL-1: interleukin-1, cytokine used to stimulate cells (protein, UniProt P01583 113-271, looked up)
Interleukin-1 alpha: SAPFSFLSNVKYNFMRIIKYEFILNDALNQSIIRANDQYLTAAALHNLDEAVKFDMGAYKSSKDDAKITVILRISKTQLYVTAQDEDQPVLLKEMPEIPKTITGSETNLLFFWETHGTKNYFTSVAHPNLFIATKQDYWVCLAGGPPSITDFQILENQA
As for B1, the “pneumococcal adherence to EC after cytokine stimulation” value in data set [1] (IL-1 stimulation, resting 240 ±10) is listed as 363 ±13 bacteria/100 EC. The “pneumococcal adherence to LC after cytokine stimulation” value in data set [2] (IL-1 stimulation, resting 270 ±15) is 355 ±18 bacteria/100 LC.
